Assays:
[1] = Study 2: pulmonary delivery by nebulizer for a defined time (10 min), plasma propofol and sedation; format: in vivo; settings: three male beagle dogs, 250 mg/mL aqueous solution nebulized for 10 min
Protocol: (§1) A second study was conducted to assess the conversion of O-phosphonooxymethyl propofol disodium salt to the pharmacologically active drug propofol following pulmonary delivery. The study design was essentially the same as Study 1 above except that the O-phosphonooxymethyl propofol disodium salt solution was nebulized for a defined period of time (10 min) instead of to complete nebulization of the solution. Three male beagle dogs was fasted overnight prior to the study. O-phosphonooxymethyl propofol disodium salt was dissolved in water (250 mg/mL). The O-phosphonooxymethyl propofol disodium salt solution was delivered for 10 min to the dog via inhalation through a nebulizer connected to a facemask that was placed over the dog's muzzle. The actual dose of O-phosphonooxymethyl propofol disodium salt delivered to the dog is less than the dose nebulized due to vapor loss during exhalation. Two mL blood samples were collected via a catheter placed in the cephalic vein prior to the study. Samples were collected for 1.5 hours post-dose at 5, 10, 20, 30, 40, 50, 60 and 90 minutes after initiation of delivery by inhalation. The concentration of propofol in the blood samples was determined using HPLC with fluorescence detection.
These finding are significant, as it is known that humans are more susceptible to the effects of propofol than dogs. […]

[2] = Study 1: pulmonary delivery by nebulizer and facemask, plasma propofol and sedation; format: in vivo; settings: one male beagle dog, inhalation of 3 mL of 250 mg/mL aqueous solution over approximately 10 min
Protocol: as §1, with “A preliminary” for “A second”, “delivery. A” for “delivery. The study design was essentially the same as Study 1 above except that the O-phosphonooxymethyl propofol disodium salt solution was nebulized for a defined period of time (10 min) instead of to complete nebulization of the solution. Three”, “beagle dog” for “beagle dogs”, “mg/mL). 3-mL of the” for “mg/mL). The”, “delivered over approximately” for “delivered for”
These finding are significant, as it is known that humans are more susceptible to the affects of propofol than dogs. Therefore, the onset of action would be very rapid in humans.

[3] = sample at 5 minutes post dose initiation, HPLC with fluorescence detection

Q: What does the source list for CC(C)c1cccc(C(C)C)c1OCOP(=O)([O-])[O-].[Na+].[Na+] [O-phosphonooxymethyl propofol disodium salt]?
A: signs of sedation, time after the completion of the inhaled dose [1]: 10 to 15 min; concentration of propofol in the plasma, first blood sample [1, 3]: significant concentration of propofol in the plasma; signs of sedation, time after the completion of the inhaled dose [2]: approximately 15 minutes; concentration of propofol in the plasma, first blood sample [2, 3]: significant concentration of propofol in the plasma

Source: US20090098209A1, “PHARMACEUTICAL CO[…]-SOLUBLE DERIVATIVES OF PROPOFOL AND METHODS OF ADMINISTERING SAME VIA PULMONARY ADMINISTRATION” (UNIVERSITY OF KANSAS, priority 2007, published 2009)
